Patent US7745479B2, “1,5-substituted indol-2-yl amide derivatives” (Hoffmann-La Roche Inc., priority 2005, dated 2010)
pKi: −log10 of the molar value.

Molecular target: T1, histamine 3 receptor (H3R) (Homo sapiens, UniProt Q9Y5N1)
T1 construct: expressed in transfected cells; host or cells: CHO cells (HR3-CHO cell line), membrane preparation
Assay: Competition binding assay with 3H-(R)α-methylhistamine on membranes of the human HR3-CHO cell line
Conditions: competition with 3H(R)α-Methylhistamine (1 nM), Ki calculated from IC50 by Cheng-Prusoff equation
Protocol: Binding Assay with ^3H-(R)α-methylhistamine
Saturation binding experiments were performed using HR3-CHO membranes prepared as described in Takahashi, K, Tokita, S., Kotani, H. (2003) J. Pharmacol. Exp. Therapeutics 307, 213-218.
An appropriate amount of membrane (60 to 80 μg protein/well) was incubated with increasing concentrations of ^3H(R)α-Methylhistamine di-hydrochloride (0.10 to 10 nM). Non specific binding was determined using a 200 fold excess of cold (R)α-Methylhistamine dihydrobromide (500 nM final concentration). The incubation was carried out at room temperature (in deep-well plates shaking for three hours). The final volume in each well was 250 μl. […] After harvesting, the plates were dried at 55° C. for 60 min, then scintillation fluid (Microscint 40, 40 microl in each well) was added and the amount of radioactivity on the filter was determined with a Packard top-counter after shaking the plates for two hours at 200 rpm at room temperature. • Binding Buffer: 50 mM Tris-HCl pH 7.4 and 5 mM MgCl2x6H2O pH 7.4. […]
An appropriate amount of protein, e.g. approximately 500 cpm binding of RAMH at Kd, were incubated for 1 hour at room temperature in 250 μl final volume in 96-well plates in presence of ^3H(R)α-Methylhistamine (1 nM final concentration=Kd). Non-specific binding was determined using a 200 fold excess of cold (R)α-Methylhistamine dihydrobromide. […]

T1 sequence (Q9Y5N1 whole entry): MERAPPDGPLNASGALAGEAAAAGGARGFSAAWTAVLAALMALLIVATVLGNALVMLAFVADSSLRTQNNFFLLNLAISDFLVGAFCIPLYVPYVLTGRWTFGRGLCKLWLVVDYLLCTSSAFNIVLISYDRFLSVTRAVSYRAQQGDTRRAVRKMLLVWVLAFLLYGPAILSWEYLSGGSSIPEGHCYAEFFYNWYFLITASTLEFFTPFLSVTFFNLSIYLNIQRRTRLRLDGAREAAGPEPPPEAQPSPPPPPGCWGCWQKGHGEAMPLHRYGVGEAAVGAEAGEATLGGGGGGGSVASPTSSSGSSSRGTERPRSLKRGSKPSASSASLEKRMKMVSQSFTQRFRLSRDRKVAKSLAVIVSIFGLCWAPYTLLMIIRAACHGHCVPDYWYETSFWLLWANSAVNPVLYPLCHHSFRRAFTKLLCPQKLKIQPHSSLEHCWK

CC(C)N1CCC(Oc2ccc3c(c2)cc(C(=O)N2CCC(F)(F)CC2)n3-c2ccnc(Cl)c2)CC1 [Example 9, [1-(2-Chloro-pyridin-4-yl)-5-(1-isopropyl-piperidin-4-yloxy)-1H-indol-2-yl]-(4,4-difluoro-piperidin-1-yl)-methanone]
pKi: 8.70
